Reference: US20170182040A1, “EPITHELIAL ION CHANNEL (ENAC) BLOCKERS TO TREAT PSORIASIS” (The Board of Trustees of the Leland Stanford Junior …, priority 2014, published 2017)

Tested on: K14 Rac1 animal model for psoriasis
Test: K14 V12 Rac1 mouse model of psoriasis, IP treatment
Type: in vivo
Settings: IP 10 mg/kg every other day, 20 treatments
Method: FIG. 1: IP treatment with benzamil ameliorates phenotype in a mouse model of psoriasis. […] (c) IP efficacy was dose-dependent (2.1-1.4-0.7 mg/kg 20 treatments) and distinct from another ENAC blocker Amiloride (10 mg/kg).
FIG. 4: Benzamil alter Rac/STAT3 signaling, has effect on human psoriatic keratinocytes. […] Effects on Rac1 and PSTAT3 by Benzamil (10 uM) were validated in human primary psoriatic keratinocytes (Rac1-green, PSTAT3-red, DNA-blue) (b).
Mice overexpressing a K14 driven hyperactive V12 Rac1 mutant display clinical-histologic features mimicking human psoriasis including hyperkeratosis, erythema, Koebnerization, Auspitz sign, arthritis, onychodystrophy, marked psoriasiform hyperplasia, parakeratosis, Munro microabcesses, dilated rete ridge blood vessels and characteristic immune infiltrates. Rac1 mouse and human psoriasis skin show similar epidermal thickness, suprabasilar Ki67, and increased expression of IL 1, 6, 17, 23, 36/CCL 2, 5, 17, 20/TNFα/TGFα/CARD14/IFIH1/IRFs, NFKB, STAT3 activation/β defensins/Act1/IL17R. Transcriptional comparison of psoriasis susceptibility genes in Rac1 mouse and human psoriatic skin show marked overlap of both epidermal and immune pathways. […] See, for example Winge et al. Journal of Investigative Dermatology (2014) 134, S9-S27.
Benzamil attenuates Rac1-mediated psoriasis in a mouse model. In a K14 Rac1 animal model for psoriasis, Benzamil was injected ip every other day for 0, 10 and 20 injections of (2 mg/kg), or PBS.
In psoriasis keratinocytes, cytokine-mediated nuclear translocation of PSTAT3 and NFκB is reduced following Benzamil treatment.

N=C(N)NC(=O)c1nc(Cl)c(N)nc1N [Amiloride, amiloride]
Edema: reduced | Overall effect of IP treatment: Little or no effect | Psoriasiform hyperplasia (histology): retained | Rac1 activation, ki67 and TGFα expression and immune cell infiltration (CD3+/cd11c+): high | Scaling: did not have distinct effect
